Experimental data reported in patent publication US7138361B2, “Herbicidal heterocycles” (E. I. du Pont de Nemours and Company, priority 2000, dated 2006).

Key:
Assay in all cases: Test D greenhouse paddy-water test in rice
Assay type in all cases: in vivo
Conditions in all cases: 500 g/ha alone, 21 days, 0-100 scale
[1] = system: Alisma plantago-aquatica (Ap)
From the text: (§1) Four plastic pots (ca. 16-cm diameter) per rate were partially filled with sterilized Tama silt loam soil comprised of a 35:50:15 ratio of sand, silt and clay and 2.6% organic matter. Separate plantings for each of the four pots were as follows. Seeds from the U.S. of Heteranthera limosa (Hl), Monochoria vaginalis (Mv), Ammania auriculata (Aa), and Sphenoclea zeylanica (Sz) were planted into one 16-cm pot for each rate. Seeds from the U.S. of Cyperus iria (Ci), Leptochloa fascicularis (Li), one stand of 9 or 10 direct-seeded rice seedlings (Oryza saliva cv. ‘Japonica—M202’; Oss), and one stand of 6 transplanted rice seedlings (Oryza sativa cv. ‘Japonica—M202’; Ost) were planted into one 16-cm pot for each rate. Seeds from the U.S. of Cyperus difformis (Cd), Alisma plantago-aquatica (Ap), and Scirpus mucronatus (Sm) were planted into one 16-cm pot for each rate. Seeds from the U.S. of Echinochloa crus-galli (Ecg), Echinochloa oryzicola (Eor), Echinochloa oryzoides (Eoz) and Echinochloa colonum (Ecc) were planted into one 16-cm pot for each rate. Plantings were sequential so that crop and weed species were at the 2.0 to 2.5-leaf stage at time of treatment.
(§2) Potted plants were grown in a greenhouse with day/night temperature settings of 29.5/26.7° C., and supplemental balanced lighting was provided to maintain a 16-hour photoperiod. Test pots were maintained in the greenhouse until test completion.
(§3) Chemical treatments consisting of Compound 1 of Index Table A (Cmpd 1), daimuron (Cmpd D), quinoclamine (Cmpd Q) and combinations thereof were formulated in acetone. At time of treatment, test pots were flooded to 3 cm above the soil surface, treated by application of test compounds directly to the paddy water, and then maintained at that water depth for the duration of the test. Effects of treatments on rice and weeds were visually evaluated by comparison to untreated controls after 21 days. Plant response ratings are reported on a 0 to 100 scale; where 0 is no effect and 100 is complete control. ND means no data.
(§4) Colby's equation was used to calculate the expected additive herbicidal effect of the mixtures of Compound 1 with daimuron (Cmpd D) and quinoclamine (Cmpd Q). Colby's equation (Colby, S. R “Calculating Synergistic and Antagonistic Responses of Herbicide Combinations,” Weeds, 15(1), pp 20–22 (1967)) calculates the expected additive effect of herbicidal mixtures, and for two active ingredients is of the form: Pa+b=Pa+Pb−(PaPb/100) wherein Pa+b is the percentage effect of the mixture expected from additive contribution of the individual components, • Pa is the observed percentage effect of the first active ingredient at the same use rate as in the mixture, and • Pb is the observed percentage effect of the second active ingredient at the same use rate as in the mixture.

[2] = system: Ammania auriculata (Aa)
From the text: as §1, §2, §3, §4

[3] = system: Cyperus difformis (Cd)
From the text: as §1, §2, §3, §4

[4] = system: Cyperus iria (Ci)
From the text: as §1, §2, §3, §4

[5] = system: Echinochloa colonum (Ecc)
From the text: as §1, §2, §3, §4

[6] = system: Echinochloa crus-galli (Ecg)
From the text: as §1, §2, §3, §4

[7] = system: Echinochloa oryzicola (Eor)
From the text: as §1, §2, §3, §4

[8] = system: Echinochloa oryzoides (Eoz)
From the text: as §1, §2, §3, §4

[9] = system: Heteranthera limosa (Hl)
From the text: as §1, §2, §3, §4

[10] = system: Leptochloa fascicularis (Li)
From the text: as §1, §2, §3, §4

[11] = system: Monochoria vaginalis (Mv)
From the text: as §1, §2, §3, §4

[12] = system: Sphenoclea zeylanica (Sz)
From the text: as §1, §2, §3, §4

[13] = system: direct-seeded rice seedlings (Oryza saliva cv. 'Japonica—M202'; Oss)
From the text: as §1, §2, §3, §4

[14] = system: transplanted rice seedlings (Oryza sativa cv. 'Japonica—M202'; Ost)
From the text: as §1, §2, §3, §4

[15] = system: Scirpus mucronatus (Sm)
From the text: as §1, §2, §3, §4

| Structure (SMILES) | Obs. (observed effect) Ap [1] | Obs. (observed effect) Aa [2] | Obs. (observed effect) Cd [3] | Obs. (observed effect) Ci [4] | Obs. (observed effect) Ecc [5] | Obs. (observed effect) Ecg [6] | Obs. (observed effect) Eor [7] | Obs. (observed effect) Eoz [8] | Obs. (observed effect) Hl [9] | Obs. (observed effect) Lf [10] | Obs. (observed effect) Mv [11] | Obs. (observed effect) Sz [12] | Obs. (observed effect) Oss [13] | Obs. (observed effect) Ost [14] | Obs. (observed effect) Sm [15] |
| --- | --- | --- | --- | --- | --- | --- | --- | --- | --- | --- | --- | --- | --- | --- | --- |
| Cc1ccc(NC(=O)NC(C)(C)c2ccccc2)cc1 [daimuron, reference compound] | 0 | 0 | 60 | 0 | 0 | 0 | 0 | 0 | 30 | 0 | 30 | 20 | 0 | 0 |  |
| NC1=C(Cl)C(=O)c2ccccc2C1=O [quinoclamine, reference compound] | 60 | 0 | 35 | 0 | 0 | 0 | 30 | 0 | 0 | 0 | 0 | 0 | 0 | 0 | 0 |
